molecular target: T1, TGF-beta receptor type-1 (Homo sapiens, UniProt P36897); experiment: Inhibition of TGF-beta1 signaling in human HEK293 cells transfected with luciferase and FAST-2 gene expression vector A3-LUX after 16 hrs by luciferase reporter gene assay; assay type: cell-based
T1 sequence (P36897 whole entry): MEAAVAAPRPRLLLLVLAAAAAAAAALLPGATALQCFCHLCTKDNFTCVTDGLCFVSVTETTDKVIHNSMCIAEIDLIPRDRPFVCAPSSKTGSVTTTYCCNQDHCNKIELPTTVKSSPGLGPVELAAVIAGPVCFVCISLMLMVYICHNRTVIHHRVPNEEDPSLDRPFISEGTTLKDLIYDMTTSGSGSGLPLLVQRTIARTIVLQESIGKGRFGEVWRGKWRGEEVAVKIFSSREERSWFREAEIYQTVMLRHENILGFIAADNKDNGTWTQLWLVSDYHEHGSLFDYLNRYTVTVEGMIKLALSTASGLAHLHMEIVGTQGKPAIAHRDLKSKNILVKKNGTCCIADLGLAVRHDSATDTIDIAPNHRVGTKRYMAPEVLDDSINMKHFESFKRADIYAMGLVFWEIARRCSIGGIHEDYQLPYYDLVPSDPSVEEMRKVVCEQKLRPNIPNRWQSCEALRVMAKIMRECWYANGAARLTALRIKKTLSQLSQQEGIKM

**Q.** For `Cn1cc(-c2cc(-c3c[nH]nc3-c3ccccn3)ccn2)cn1`, which IC50 is on record?
**A.** Its IC50 is 68 nM.

**Q.** Which IC50 does the source give for `c1ccc(-c2n[nH]cc2-c2ccnc(-n3cccn3)c2)nc1` here?
**A.** The IC50 was 77 nM.

**Q.** How did the IC50 turn out when `c1ccc(-c2n[nH]cc2-c2ccnc(-n3ccnc3)c2)nc1` was run?
**A.** Its IC50 is 88 nM.

**Q.** With `CN(C)CCCOc1ccc(-c2cc(-c3c[nH]nc3-c3ccccn3)ccn2)cn1` as the molecule, how does the IC50 read?
**A.** Its IC50 is 11 nM.

**Q.** Which IC50 does the source give for `CN1CCN(c2ccc(-c3cc(-c4c[nH]nc4-c4ccccn4)ccn3)cn2)CC1` here?
**A.** The IC50 was 32 nM.

**Q.** With `CN(C)CCOc1ccc(-c2cc(-c3c[nH]nc3-c3ccccn3)ccn2)cc1` as the molecule, how does the IC50 read?
**A.** The IC50 was 19 nM.

molecular target: T2, Activin receptor type-1B (Homo sapiens, UniProt P36896); experiment: Inhibition of Activin A in human HEK293 cells transfected with luciferase and FAST-2 gene expression vector A3-LUX after 16 hrs by luciferase reporter gene assay; assay type: cell-based
T2 sequence (P36896 whole entry): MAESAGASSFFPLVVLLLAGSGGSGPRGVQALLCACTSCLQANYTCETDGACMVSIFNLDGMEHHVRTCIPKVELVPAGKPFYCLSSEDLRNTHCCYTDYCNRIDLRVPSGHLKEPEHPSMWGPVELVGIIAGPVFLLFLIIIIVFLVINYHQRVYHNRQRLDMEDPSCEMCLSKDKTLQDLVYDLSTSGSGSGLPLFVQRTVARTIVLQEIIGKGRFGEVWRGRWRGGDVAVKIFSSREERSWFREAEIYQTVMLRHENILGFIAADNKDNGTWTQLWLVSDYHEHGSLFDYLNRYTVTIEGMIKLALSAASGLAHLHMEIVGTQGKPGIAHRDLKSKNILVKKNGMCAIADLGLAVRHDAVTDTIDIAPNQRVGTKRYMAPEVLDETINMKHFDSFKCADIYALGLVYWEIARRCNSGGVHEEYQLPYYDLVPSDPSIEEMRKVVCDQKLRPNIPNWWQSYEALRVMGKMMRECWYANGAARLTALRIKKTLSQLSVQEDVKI

**Q.** How did the IC50 turn out when `O=C(NC1CCOCC1)c1ccc(-c2cc(-c3c[nH]nc3-c3ccccn3)ccn2)cc1` was run?
**A.** The IC50 was greater than 1000 nM.

From ChEMBL document CHEMBL1828567, “2-Phenyl and 2-heterocyclic-4-(3-(pyridin-2-yl)-1H-pyrazol-4-yl)pyridines as inhibitors of TGF-β1 and activin A signalling” (Bioorg Med Chem Lett, 2011)
